Drawing on patent publication US8846730B2, “Compounds as cannabinoid receptor ligands” (priority 2008, dated 2014), this text covers EC50 and Ki for 14 compounds.

Broadly, the EC50 is the concentration giving half of the maximal effect. What is called Ki is a dissociation constant, usually derived from enzyme kinetics or from competition with a known ligand.

In assay [1] the target is rat CB1 receptors (HEK cells) (Rattus norvegicus (Rat), UniProt P20272). Description: rat CB1 cyclase functional assay (HitHunter cAMP). The assay is classed as cell-based. As to the method:
(§1) The cyclase functional assays were performed using the HitHunter™ cAMP assay kit from DiscoveRx (Fremont, Calif.) according to vendor's protocol. Briefly, HEK cells expressing CB2 or CB1 receptors (rat or human) were detached using cell dissociation buffer (Invitrogen, Carlsbad, Calif.), dispersed and placed in suspension at 10,000 cells per well in 96 well plates prior to the assay. Cell suspensions were incubated at 37° C. for 20 min with variable concentrations of test ligands and or 10 μM CP 55,940-positive control in the presence of a fixed concentration of forskolin (18 μM for rat CB2 and 37 μM for rat CB1) in Dulbescco's phosphate-buffered saline (Invitrogen, Carlsbad, Calif.) supplemented with bovine serum albumin (0.01% final concentration). The reactions were terminated by the addition of lysis buffer and the luminescence was detected following the procedure according to the manufacturer's instructions. EC50 values were calculated using sigmoidal dose-response curve fitting from Prism (GraphPad).

The target of assay [2] is rat CB2 receptors (HEK cells) (Rattus norvegicus (Rat), UniProt Q9QZN9). The assay is described as follows: rat CB2 cyclase functional assay (HitHunter cAMP). Type of assay: cell-based. As to the method: as §1
A further assay deals with rat CB2 receptors (Rattus norvegicus (Rat), UniProt Q9QZN9). Description: rat CB2 radioligand binding assay ([3H]CP 55,940 competition). The following applies: HEK293 membranes, 0.5 nM [3H]CP 55,940. On the procedure: (§2) The CB1 and CB2 radioligand binding assays described herein are utilized to ascertain the affinity of compounds of the present application for binding to CB2 relative to CB1 receptors.
HEK293 cells stably expressing rat CB2 receptors were grown until a confluent monolayer was formed. Briefly, the cells were harvested and homogenized in TE buffer (50 mM Tris-HCl, 1 mM MgCl2, and 1 mM EDTA) using a polytron for 2×10 second bursts in the presence of protease inhibitors, followed by centrifugation at 45,000×g for 20 minutes. The final membrane pellet was re-homogenized in storage buffer (50 mM Tris-HCl, 1 mM MgCl2, and 1 mM EDTA and 10% sucrose) and frozen at −78° C. until used. Saturation binding reactions were initiated by the addition of membrane preparation (protein concentration of 20 μg/well for rat CB2) into wells of a deep well plate containing [^3H]CP 55,940 (120 Ci/mmol, a nonselective CB agonist commercially available from Tocris) in assay buffer (50 mM Tris, 2.5 mM EDTA, 5 mM MgCl2, and 0.5 mg/mL fatty acid free BSA, pH 7.4). After 45 min incubation at 30° C., binding reaction was terminated by the addition of 300 μl/well of cold assay buffer followed by rapid vacuum filtration through a UniFilter-96 GF/C filter plates (pre-soaked in 1 mg/mL BSA for 2 hours). The bound activity was counted in a TopCount using Microscint-20. Saturation experiments were conducted with twelve concentrations of [^3H]CP 55,940 ranging from 0.01 to 8 nM. Competition experiments were conducted with 0.5 nM [^3H]CP 55,940 and five concentrations of displacing ligands selected from the range of 0.01 nM to 10 μM. The addition of 10 μM unlabeled CP 55,940 (Tocris, Ellisville, Mo.) was used to assess nonspecific binding.

In the next assay the target is human CB2 receptors (Homo sapiens (Human), UniProt P34972). Description: human CB2 radioligand binding assay ([3H]CP 55,940 competition). The following applies: HEK293 membranes, 0.5 nM [3H]CP 55,940; read-out: human CB2 (Ki). On the procedure:
as §2
HEK293 cells stably expressing human CB2 receptors were grown until a confluent monolayer was formed. Briefly, the cells were harvested and homogenized in TE buffer (50 mM Tris-HCl, 1 mM MgCl2, and 1 mM EDTA) using a polytron for 2×10 second bursts in the presence of protease inhibitors, followed by centrifugation at 45,000×g for 20 minutes. The final membrane pellet was re-homogenized in storage buffer (50 mM Tris-HCl, 1 mM MgCl2, and 1 mM EDTA and 10% sucrose) and frozen at −78° C. until used. Saturation binding reactions were initiated by the addition of membrane preparation (protein concentration of 5 μg/well for human CB2) into wells of a deep well plate containing [^3H]CP 55,940 (120 Ci/mmol, a nonselective CB agonist commercially available from Tocris) in assay buffer (50 mM Tris, 2.5 mM EDTA, 5 mM MgCl2, and 0.5 mg/mL fatty acid free BSA, pH 7.4). After 90 min incubation at 30° C., binding reaction was terminated by the addition of 300 μL/well of cold assay buffer followed by rapid vacuum filtration through a UniFilter-96 GF/C filter plates (pre-soaked in 1 mg/mL BSA for 2 hours). The bound activity was counted in a TopCount using Microscint-20. Saturation experiments were conducted with twelve concentrations of [^3H]CP 55,940 ranging from 0.01 to 8 nM. Competition experiments were conducted with 0.5 nM [^3H]CP 55,940 and five concentrations (0.01 nM to 10 μM) of displacing ligands. The addition of 10 μM unlabeled CP 55,940 (Tocris, Ellisville, Mo.) was used to assess nonspecific binding.

Where [3] appears, read: HEK cells, forskolin 18 μM, read-out: rat CB2 cyclase (EC50).
Where [4] appears, read: HEK cells, forskolin 37 μM, read-out: rCB1 cyclase (EC50).

Like-named read-outs stand apart in the source and are kept apart here. A value given as a limit tells only on which side of the number the result lay.

Sequence of human CB2 receptors (P34972 whole entry): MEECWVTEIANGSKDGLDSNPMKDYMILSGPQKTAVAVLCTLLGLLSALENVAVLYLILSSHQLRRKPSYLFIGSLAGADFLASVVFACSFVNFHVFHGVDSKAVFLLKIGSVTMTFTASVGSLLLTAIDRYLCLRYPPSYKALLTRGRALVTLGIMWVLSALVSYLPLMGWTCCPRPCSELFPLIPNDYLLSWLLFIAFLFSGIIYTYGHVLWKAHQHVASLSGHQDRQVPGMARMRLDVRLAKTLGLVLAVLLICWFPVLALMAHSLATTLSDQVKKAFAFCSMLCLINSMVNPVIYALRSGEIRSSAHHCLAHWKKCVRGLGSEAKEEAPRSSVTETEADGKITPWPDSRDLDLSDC
Sequence of rat CB1 receptors (HEK cells) (P20272 whole entry): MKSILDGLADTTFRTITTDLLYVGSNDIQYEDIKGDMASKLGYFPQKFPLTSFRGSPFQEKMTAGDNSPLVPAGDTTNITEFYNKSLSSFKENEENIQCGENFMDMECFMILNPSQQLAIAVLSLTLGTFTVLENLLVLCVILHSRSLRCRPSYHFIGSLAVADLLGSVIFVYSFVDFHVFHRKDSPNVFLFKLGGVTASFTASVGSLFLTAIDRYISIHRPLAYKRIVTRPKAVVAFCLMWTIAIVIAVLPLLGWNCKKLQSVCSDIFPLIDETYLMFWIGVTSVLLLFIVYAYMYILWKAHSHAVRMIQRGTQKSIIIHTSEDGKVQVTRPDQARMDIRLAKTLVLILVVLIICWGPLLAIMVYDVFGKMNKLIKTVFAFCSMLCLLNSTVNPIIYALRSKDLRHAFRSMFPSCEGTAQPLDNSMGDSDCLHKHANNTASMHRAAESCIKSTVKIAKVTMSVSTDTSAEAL

With `CC(C)(C)c1cn(C[C@H]2CCCO2)/c(=N/C(=O)c2cc(C(F)(F)F)ccc2OCc2ccccc2)s1` [Example 36, 2-(benzyloxy)-N-[(2Z)-5-tert-butyl-3-[(2R)-tetrahydrofuran-2-ylmethyl]-1,3-thiazol-2(3H)-ylidene]-5-(trifluoromethyl)benzamide], the figures for the EC50 in assay [1] and in assay [2] (setting [3]) were 6560 nM and 1.47 nM, respectively. Moreover, the inhibition constant Ki turned out to be 2.9 nM on rat CB2 receptors and 6 nM on human CB2 receptors.
`CC(C)(C)c1cn(C[C@@H]2CCCO2)/c(=N/C(=O)c2cc(C(F)(F)F)ccc2OC[C@H](N)CO)s1` [Example 33, 2-{[(2R)-2-amino-3-hydroxypropyl]oxy}-N-[(2Z)-5-tert-butyl-3-[(2S)-tetrahydrofuran-2-ylmethyl]-1,3-thiazol-2(3H)-ylidene]-5-(trifluoromethyl)benzamide]: the results for the EC50 in assay [1] and in assay [2] (setting [3]) were 1170 nM and 0.18 nM, respectively. Moreover, the Ki worked out at 2.8 nM at rat CB2 receptors and 7.4 nM on human CB2 receptors.
With `CC(C)(C)c1cn(C[C@H]2CCCO2)/c(=N/C(=O)c2cc(C(F)(F)F)ccc2OC[C@H]2CCN2)s1` [Example 1, 2-[(2R)-azetidin-2-ylmethoxy]-N-[(2Z)-5-tert-butyl-3-[(2R)-tetrahydrofuran-2-ylmethyl]-1,3-thiazol-2(3H)-ylidene]-5-(trifluoromethyl)benzamide], the EC50 was determined as 9330 nM in assay [1] and 2.26 nM in assay [2] (setting [3]). Besides, the Ki at rat CB2 receptors was determined as 15 nM; on human CB2 receptors it was 115 nM.
`CC(C)(C)c1cn(C[C@H]2CCCO2)/c(=N/C(=O)c2cc(C(F)(F)F)ccc2OCc2nccs2)s1` [Example 38, N-[(2Z)-5-tert-butyl-3-[(2R)-tetrahydrofuran-2-ylmethyl]-1,3-thiazol-2(3H)-ylidene]-2-(1,3-thiazol-2-ylmethoxy)-5-(trifluoromethyl)benzamide]: the EC50 in assay [1] is 2000 nM; in assay [2] it was 0.33 nM. Further, the Ki at rat CB2 receptors was determined as 2.5 nM; at human CB2 receptors it was 5.5 nM.
Turning to `CN1C[C@H](F)C[C@H]1COc1ccc(C(F)(F)F)cc1C(=O)/N=c1\sc(C(C)(C)C)cn1C[C@H]1CCCO1` [Example 54, N-[(2Z)-5-tert-butyl-3-[(2R)-tetrahydrofuran-2-ylmethyl]-1,3-thiazol-2(3H)-ylidene]-2-{[(2S,4R)-4-fluoro-1-methylpyrrolidin-2-yl]methoxy}-5-(trifluoromethyl)benzamide], the EC50 in assay [1] worked out at 362 nM; in assay [2] (setting [3]), 0.15 nM. Further, the Ki came to 1.5 nM on rat CB2 receptors and 2 nM on human CB2 receptors.
For `CC(C)(C)c1cn(C[C@H]2CCCO2)/c(=N/C(=O)c2cc(C(F)(F)F)ccc2OC[C@@H]2CCCN2S(C)(=O)=O)s1` [Example 48, N-[(2Z)-5-tert-butyl-3-[(2R)-tetrahydrofuran-2-ylmethyl]-1,3-thiazol-2(3H)-ylidene]-2-{[(2S)-1-(methylsulfonyl)pyrrolidin-2-yl]methoxy}-5-(trifluoromethyl)benzamide], in that order: 8650 nM, 0.39 nM, 3 nM and 16 nM.
On to `CN1CCC[C@H]1COc1ccc(C(F)(F)F)cc1C(=S)/N=c1\sc(C(C)(C)C)cn1C[C@H]1CCCO1` [Example 51, N-[(2Z)-5-tert-butyl-3-[(2R)-tetrahydrofuran-2-ylmethyl]-1,3-thiazol-2(3H)-ylidene]-2-{[(2S)-1-methylpyrrolidin-2-yl]methoxy}-5-(trifluoromethyl)benzenecarbothioamide], for which the results for the EC50 in assay [1] and in assay [2] (setting [3]) were 1320 nM and 0.34 nM, respectively. Besides, the results for the Ki on rat CB2 receptors and at human CB2 receptors were 0.9 nM and 1.3 nM, respectively.
Take `CN1CCCC[C@H]1COc1ccc(C(F)(F)F)cc1C(=O)/N=c1\sc(C(C)(C)C)cn1C[C@H]1CCCO1` [Example 5]: the EC50 is 612 nM in assay [1] (setting [4]) and 0.15 nM in assay [2] (setting [3]). The results for the Ki on rat CB2 receptors and at human CB2 receptors were 1.4 nM and 0.7 nM, respectively.
Consider `CC(C)(C)NNc1ccc(C(F)(F)F)cc1C(=O)/N=c1\sc(C(C)(C)C)cn1C[C@H]1CCCO1` [Example 39, 2-(2-tert-butylhydrazino)-N-[(2Z)-5-tert-butyl-3-[(2R)-tetrahydrofuran-2-ylmethyl]-1,3-thiazol-2(3H)-ylidene]-5-(trifluoromethyl)benzamide], for which the EC50 in assay [1] (setting [4]) was over 27000 nM. Besides, the Ki at rat CB2 receptors was determined as 1.7 nM; at human CB2 receptors, 3.7 nM.
On the same counts, the results for `Cn1cncc1COc1ccc(C(F)(F)F)cc1C(=O)/N=c1\sc(C(C)(C)C)cn1C[C@H]1CCCO1` [Example 67, N-[(2Z)-5-tert-butyl-3-[(2R)-tetrahydrofuran-2-ylmethyl]-1,3-thiazol-2(3H)-ylidene]-2-[(1-methyl-1H-imidazol-5-yl)methoxy]-5-(trifluoromethyl)benzamide] are over 27000 nM, 13 nM and 115 nM.
In the case of `CC(C)(C)C(=O)COc1ccc(C(F)(F)F)cc1C(=O)/N=c1\sc(C(C)(C)C)cn1C[C@H]1CCCO1` [Example 72, N-[(2Z)-5-tert-butyl-3-[(2R)-tetrahydrofuran-2-ylmethyl]-1,3-thiazol-2(3H)-ylidene]-2-(3,3-dimethyl-2-oxobutoxy)-5-(trifluoromethyl)benzamide], in assay [1], the half-maximal effective concentration (EC50) was over 27000 nM. The values for the Ki on rat CB2 receptors and at human CB2 receptors were 0.3 nM and 0.9 nM, respectively.
Take `CC(C)(C)/C(COc1ccc(C(F)(F)F)cc1C(=O)/N=c1\sc(C(C)(C)C)cn1C[C@H]1CCCO1)=N\O` [Example 71, N-[(2Z)-5-tert-butyl-3-[(2R)-tetrahydrofuran-2-ylmethyl]-1,3-thiazol-2(3H)-ylidene]-2-{[(2E)-2-(hydroxyimino)-3,3-dimethylbutyl]oxy}-5-(trifluoromethyl)benzamide]: the EC50 in assay [1] was over 27000 nM. The values for the Ki on rat CB2 receptors and on human CB2 receptors were 4.1 nM and 5.4 nM, respectively.
For `CC(C)(C)/C(COc1ccc(C(F)(F)F)cc1C(=O)/N=c1\sc(C(C)(C)C)cn1C[C@H]1CCCO1)=N/O` [Example 70, N-[(2Z)-5-tert-butyl-3-[(2R)-tetrahydrofuran-2-ylmethyl]-1,3-thiazol-2(3H)-ylidene]-2-{[(2Z)-2-(hydroxyimino)-3,3-dimethylbutyl]oxy}-5-(trifluoromethyl)benzamide], in that order: over 27000 nM, 8.1 nM and 12 nM.
Turning to `CC(=NOc1ccc(C(F)(F)F)cc1C(=O)/N=c1\sc(C(C)(C)C)cn1C[C@H]1CCCO1)C(F)(F)F` [Example 80, N-[(2Z)-5-tert-butyl-3-[(2R)-tetrahydrofuran-2-ylmethyl]-1,3-thiazol-2(3H)-ylidene]-5-(trifluoromethyl)-2-({[2,2,2-trifluoro-1-methylethylidene]amino}oxy)benzamide], in assay [1], the EC50 is over 27000 nM. Besides, the inhibition constant Ki was 4.8 nM at rat CB2 receptors and 4.4 nM on human CB2 receptors.
